One test concerns male ICR mice. The test is described as follows: In vivo mouse tail flick assay (radiant heat). The note with it: for % Prolong.: 1 minute post-treatment vs 0 time; for tail flick response time, 1 Min. (single animal) / tail flick response time, 1 Min. (Avg.): 1 minute post-treatment; for tail flick response time, 1 Min. (single animal): cut-off 15 seconds; for tail flick response time, 1 Min. (Avg.) / tail flick response time, 0 Time (Avg.): group mean; for tail flick response time, 0 Time (Avg.) / tail flick response time, 0 Time (single animal): pre-treatment. (In general: Thermal pain tests record how soon the animal reacts.)

Another test concerns the target μ opiate receptor (Cavia porcellus, UniProt A0ACM8Q262). The test can be described thus: biochemical. It counts as binding, guinea pig.
The target in the next test is δ opiate receptor (Cavia porcellus, UniProt A0A286XTF2). The test is described as follows: Opiate (δ) binding, [3H]DPDPE competitive radioligand binding. Also on record: species or system guinea pig.
The target in test [1] is opioid receptor (non-selective). The test is described as follows: Opiate (non-selective) binding, [3H]naloxone. Particulars: [3H]naloxone (1 nM), rat cerebral cortex membranes.
[2] abbreviates: 10 μg/5 μl ICV, listed as Test Compound.
[3] abbreviates: 30 μg/5 μl ICV, listed as Test Compound.
[4] abbreviates: read-out: inhibition of radioligand binding.
Where [5] appears, read: reference compounds, [3H]DPDPE bound (2 nM).

“And” between values parts separate entries of the source, which are not always exact repeats. Identical values can stand only once. Like-named read-outs stand apart in the source and are kept apart here.

δ opiate receptor, sequence (A0A286XTF2 1-366): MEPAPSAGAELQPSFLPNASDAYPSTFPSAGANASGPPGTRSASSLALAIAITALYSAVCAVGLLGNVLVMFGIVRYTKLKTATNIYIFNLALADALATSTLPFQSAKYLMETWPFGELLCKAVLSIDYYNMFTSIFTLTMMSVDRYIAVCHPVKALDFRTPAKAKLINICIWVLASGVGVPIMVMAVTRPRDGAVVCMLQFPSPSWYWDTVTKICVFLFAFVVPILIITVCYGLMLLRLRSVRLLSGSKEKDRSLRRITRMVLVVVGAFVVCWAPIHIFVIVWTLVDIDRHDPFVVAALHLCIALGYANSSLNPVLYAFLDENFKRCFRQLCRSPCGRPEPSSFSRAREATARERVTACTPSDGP
μ opiate receptor, sequence (A0ACM8Q262 1-400): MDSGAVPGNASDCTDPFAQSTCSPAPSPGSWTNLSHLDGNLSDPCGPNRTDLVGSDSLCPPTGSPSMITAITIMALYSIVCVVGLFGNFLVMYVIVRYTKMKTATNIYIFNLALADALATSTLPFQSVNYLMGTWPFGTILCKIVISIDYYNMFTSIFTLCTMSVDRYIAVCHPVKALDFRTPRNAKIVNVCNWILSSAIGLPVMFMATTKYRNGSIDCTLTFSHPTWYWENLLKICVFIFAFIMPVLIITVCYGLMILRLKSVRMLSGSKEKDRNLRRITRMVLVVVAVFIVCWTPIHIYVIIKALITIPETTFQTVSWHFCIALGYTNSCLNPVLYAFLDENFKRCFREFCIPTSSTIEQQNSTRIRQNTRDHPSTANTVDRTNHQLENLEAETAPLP

For the compound `O=C1CN2C(=O)CCN(CCc3ccc(O)cc3)C2CN1CCc1ccccc1` (centres unmarked) [Compound 5], the “% Prolong.” value in the test with male ICR mice (10 μg/5 μl ICV) is given as 6%; in the test on male ICR mice (30 μg/5 μl ICV), 63%; in the test with male ICR mice (100 μg/5 μl ICV) it was 100%. Also, the “tail flick response time, 1 Min. (single animal)” value in the test on male ICR mice (setting [2]) was 7.5 seconds (2×) and 6.7 seconds and 6.8 seconds; with male ICR mice (setting [3]), >15 seconds (2×) and 7.2 seconds and 6.3 seconds; in the test on male ICR mice (100 μg/5 μl ICV), more than 15 s. Also, the “tail flick response time, 1 Min. (Avg.)” value in the test on male ICR mice (10 μg/5 μl ICV) is “Avg. 7.1 seconds”; with male ICR mice (30 μg/5 μl ICV), “Avg. > 15 seconds”; in the test on male ICR mice (100 μg/5 μl ICV), “Avg. > 15 seconds”. The “tail flick response time, 0 Time (Avg.)” value is “Avg. = 6.7 seconds” in the test with male ICR mice (10 μg/5 μl ICV), “Avg. = 6.7 seconds” with male ICR mice (30 μg/5 μl ICV) and “Avg. = 6.5 seconds” with male ICR mice (100 μg/5 μl ICV). For the same compound, the “tail flick response time, 0 Time (single animal)” value in the test with male ICR mice (setting [2]) was 6.5 s and 7.2 s and 6.9 s and 6.2 s; with male ICR mice (setting [3]) it was 6.5 s and 6.7 s and 7.2 s and 6.3 s; in the test on male ICR mice (100 μg/5 μl ICV, listed as Test Compound), 6.5 seconds (2×) and 6.3 seconds and 6.8 seconds. In addition, the “analgesic potency relative to morphine” value in the test on male ICR mice (ICV, tail flick) is given as 10%-15%. Further, the results for the concentration for half-maximal inhibition (IC50) at μ opiate receptor and on δ opiate receptor (read-out: IC50) were 5400 ± 700 nM and 6.9 ± 1.2 µM, respectively. Also, the results for the inhibition constant (Ki) at μ opiate receptor and on δ opiate receptor (read-out: Ki) were 640 ± 80 nM and 1700 ± 300 nM, respectively. Moreover, the inhibition at 10 µM turned out to be 64% on μ opiate receptor (setting [4]) and 60% at δ opiate receptor (setting [4]).
In test [1], `CCCCCN1C[C@@H]2N(C(=O)OCCc3ccc(O)cc3)CCC(=O)N2[C@@H](CCc2ccccc2)C1=O` [Compound 30] showed an IC50 of 27 nM.
Regarding `C[C@@H](NC(=O)[C@@H](N)Cc1ccc(O)cc1)C(=O)NCC(=O)N(C)[C@@H](Cc1ccccc1)C(=O)NCCO` [DAMGO, (D-Ala^2, N-methyl-phe^4, gly-ol^5)-enkephalin], the “Hill Coefficient” value on μ opiate receptor was 0.92; at δ opiate receptor (setting [5]) it was 1.08. In addition, the values for the IC50 on μ opiate receptor and at δ opiate receptor were 6.5 nM and 4.8 µM, respectively. In addition, the Ki at μ opiate receptor stood at 0.59 nM; at δ opiate receptor, 1200 nM.
As for `CN1CC[C@]23c4c5ccc(O)c4O[C@H]2[C@@H](O)C=C[C@H]3[C@H]1C5` [Morphine, reference compound], in the test on male ICR mice (10 μg/5 μl ICV), the “% Prolong.” value was 100%; the “tail flick response time, 1 Min. (single animal)” value was more than 15 s; the “tail flick response time, 1 Min. (Avg.)” value is recorded as “Avg. > 15 seconds”; the “tail flick response time, 0 Time (single animal)” value was 7.5 s and 6.3 s and 7.2 s and 6.8 s. For the same compound, the “tail flick response time, 0 Time (Avg.)” value in the test with male ICR mice (10 μg/5 μl ICV) is recorded as “Avg. = 7.0 seconds”.
`Oc1ccc2c3c1O[C@H]1c4[nH]c5ccccc5c4C[C@@]4(O)[C@@H](C2)N(CC2CC2)CC[C@]314` [Naltrindole]: at μ opiate receptor, the “Hill Coefficient” value is 0.98, the IC50 stood at 27 nM and the inhibition constant Ki was found to be 2.5 nM. Moreover, the “Hill Coefficient” value at δ opiate receptor (setting [5]) stood at 0.53.
For `Oc1ccc2c3c1O[C@H]1c4[nH]c5c(c4C[C@@]4(O)[C@@H](C2)N(CC2CC2)CC[C@]314)C[C@@]1(O)[C@H]2Cc3ccc(O)c4c3[C@@]1(CCN2CC1CC1)[C@H]5O4` [Norbinaltorphimine], on μ opiate receptor, the “Hill Coefficient” value was 1.13, half-maximal inhibition (IC50) required 280 nM and the Ki stood at 26 nM.
On to `C[C@@H](NC(=O)[C@@H](N)Cc1ccc(O)cc1)C(=O)NCC(=O)N(C)[C@@H](Cc1ccccc1)C(=O)NCCO` [[^3H]DAMGO], for which the equilibrium dissociation constant (Kd) on μ opiate receptor (read-out: Kd of radioligand) was determined as 0.27 nM.
As to (D-pen^3, D-pen^5) enkephalin [DPDPE], the “Hill Coefficient” value at μ opiate receptor is on record as 1.32; on δ opiate receptor, 0.86.

Usually IC50 stands for the point on the concentration scale where inhibition reaches its midpoint. One may read the Ki as the equilibrium dissociation constant of an inhibitor or competing ligand from its target. In general, inhibition refers to how much of the control response was suppressed. In general, Kd refers to the concentration at which binding is half-saturated.

The values above are taken from patent US7598253B2, “Reverse-turn mimetics and methods relating thereto” (Myriad Genetics, Inc., priority 1995, dated 2009).
